Data from paper PMC8151276, “An Integrated Approach toward NanoBRET Tracers for Analysis of GPCR Ligand Engagement” (Molecules, 2021).

What was measured:
[1] = target: T1, MCHR2 (Homo sapiens, UniProt Q969V1); experiment: NanoBRET screen HiBiT-MCHR2 in HEK293; format: binding; conditions: MCHR2
T1 construct: purchased Promega (in-house HiBiT-GPCR construct library, NanoBRET)
Method: (§1) Each tracer candidate was screened across the entire library of HiBiT-GPCR constructs using NanoBRET as the detection modality. As depicted in Figure 4A, the specificity of interactions was evaluated through decrease in BRET due to competitive displacement of a bound tracer by excess parental compound. Each tracer was analyzed for binding to each HiBiT-GPCR fusion in the absence and in the presence of competing parental compound. Briefly, HEK293 cells were transfected with HiBiT-GPCR constructs diluted into promoterless DNA to reduce expression and maximize translocation to the cell surface. Each tracer candidate was then screened at concentrations of 1 μM and 0.1 μM across cells expressing these fusions. Cells were treated for 1.5 h with tracer either alone or in the presence of 20 μM competing parental compound (i.e., control). BRET was measured upon addition of purified LgBiT and subsequent complementation with HiBiT genetically fused to a GPCR. The specificity of interactions was assessed through a decrease in BRET signal due to competitive displacement of the bound tracer. To further gauge the robustness of these interactions, the fold response over the control (i.e., BRETtracer/BRETcontrol) was calculated. We chose a 1.5-fold response, which translates to ≥7-fold signal over noise as the minimal threshold required to score an interaction as positive.
(§2) HiBiT-GPCR DNA constructs were diluted in 10 mM Tris pH 8 to a final concentration of 0.01 μg/μL, arrayed in 96-well plates and stored at −20 °C. For transfection, HEK293 cells were suspended in Opti-MEM (without phenol red) supplemented with 2% fetal bovine serum (Seradigm) and 100 units/mL penicillin–streptomycin (Gibco) at a final concentration of 220,000 cells/mL and dispensed into white 96-well plates at 90 μL/well. Subsequent transfections and screens were carried using an Agilent Bravo Automated Liquid Handling Platform. First, the 96-well HiBiT DNA arrays were diluted 25-fold in Opti-MEM (without serum or phenol red) to a final concentration of 0.0004 μg/μL and 20 μL of the diluted DNAs were transferred into new 96-well plates. Next, promoterless carrier DNA (1 μg/μL) was diluted 25-fold (0.04 μg/μL) and then dispensed into the diluted arrays at 20 μL/well. Following brief mixing, Viafect transfection reagent (Promega) diluted 16-fold into Opti-MEM was dispensed into the plates at 40 μL/well. After mixing by pipetting, plates were incubated for 10 min on the pipetting station deck. The DNA-transfection reagent complexes were then added to plates containing cells. To facilitate the screen, 10 μL of DNA-transfection reagent complexes were added in duplicates to the top 4 and bottom 4 rows, resulting in two identical 48-well arrays per plate. Plates with transfected cells were incubated for 18–20 h at 37 °C/5% CO2. A screen of each tracer across the entire library using two different concentrations requires duplicate plates of transfected cells. Depending on the number of tracers being screened, transfections can be scaled up using the same ratios. The next day, for each tracer, four 20× screening solutions in tracer dilution buffer (Promega) were prepared: two duplicates at final concentration of 20 μM and two duplicates at a final concentration of 2 μM. […] The four resulting solutions were diluted 4-fold in Opti-MEM without serum or phenol red to generate 5× solutions (5 µM and 0.5 µM tracer +/− 100 μM competing compound). To screen the library, a BioTek MultiFlo FX liquid dispenser was used to dispense 22.5 µL of tracer solution to the top 4 rows and 22.5 µL tracer + competing compound solution to the 4 bottom rows. Plates were briefly mixed on an orbital shaker and incubated for 1.5 h at room temperature. […] Plates were briefly mixed on an orbital shaker and incubated for 15 min to allow complementation.

[2] = target: T2, NPY5R (Homo sapiens, UniProt Q15761); experiment: NanoBRET screen HiBiT-NPY5R in HEK293; format: binding; conditions: NPY5R
T2 construct: purchased Promega (in-house HiBiT-GPCR construct library, NanoBRET)
T2 sequence (Q15761 1-445): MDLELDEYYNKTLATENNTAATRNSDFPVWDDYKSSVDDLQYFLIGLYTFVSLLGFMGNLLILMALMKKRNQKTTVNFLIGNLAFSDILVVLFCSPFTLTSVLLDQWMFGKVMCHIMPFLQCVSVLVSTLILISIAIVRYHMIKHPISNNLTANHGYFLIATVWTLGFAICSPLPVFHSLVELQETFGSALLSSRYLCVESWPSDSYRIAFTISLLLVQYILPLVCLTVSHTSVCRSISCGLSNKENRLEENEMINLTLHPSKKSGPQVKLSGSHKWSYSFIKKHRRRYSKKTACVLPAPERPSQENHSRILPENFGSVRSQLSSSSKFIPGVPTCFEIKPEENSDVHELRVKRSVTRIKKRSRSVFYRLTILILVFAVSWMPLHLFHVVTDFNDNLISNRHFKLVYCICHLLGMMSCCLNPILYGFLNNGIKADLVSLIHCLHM
Method: as §1, §2

T1 sequence (Q969V1 whole entry): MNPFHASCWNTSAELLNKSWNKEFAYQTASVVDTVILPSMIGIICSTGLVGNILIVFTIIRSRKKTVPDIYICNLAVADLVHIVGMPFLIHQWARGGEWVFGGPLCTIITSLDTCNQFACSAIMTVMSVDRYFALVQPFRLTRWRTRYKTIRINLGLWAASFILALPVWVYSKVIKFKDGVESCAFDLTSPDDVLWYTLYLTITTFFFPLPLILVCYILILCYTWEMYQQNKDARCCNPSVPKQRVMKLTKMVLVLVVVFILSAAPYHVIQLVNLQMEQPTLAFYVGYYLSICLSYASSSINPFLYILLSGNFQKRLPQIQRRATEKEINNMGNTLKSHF

| SMILES | NanoBRET Fold Response ([1]; 0.1μM tracer) | NanoBRET Fold Response ([1]; 1μM tracer) | NanoBRET Fold Response ([2]; 0.1μM tracer) | NanoBRET Fold Response ([2]; 1μM tracer) | NanoBRET Fold Response ([1]; tracer 0.1μM) | NanoBRET Fold Response ([1]; tracer 1μM) | NanoBRET Fold Response ([2]; tracer 0.1μM) | NanoBRET Fold Response ([2]; tracer 1μM) |
| --- | --- | --- | --- | --- | --- | --- | --- | --- |
| O=C(CCOCCOCCOCCOCCNC(=O)CCc1ccc2n1[B-](F)(F)[N+]1=C(c3ccc[nH]3)C=CC1=C2)NCCCN1CCN(C2=Nc3cc(Cl)ccc3Nc3ccccc32)CC1 [Clozapine-a-2-NB590] | 0.98 | 1.37 | 1.15 | 0.96 | – | – | – | – |
| CN1CCN(C2=Nc3cc(Cl)ccc3Nc3ccc(CNC(=O)CCOCCOCCOCCOCCNC(=O)CCc4ccc5n4[B-](F)(F)[N+]4=C(c6ccc[nH]6)C=CC4=C5)cc32)CC1 [Clozapine-b-2-NB590] | 1.00 | 0.97 | 1.02 | 1.04 | – | – | – | – |
| Cc1nc2n(c(=O)c1CCN1CCC(c3noc4cc(F)ccc34)CC1)CCCC2OC(=O)NCCOCCOCCOCCOCCNC(=O)CCc1ccc2n1[B-](F)(F)[N+]1=C(c3ccc[nH]3)C=CC1=C2 (stereo not drawn) [Risperidone-2-NB590] | – | – | – | – | 0.96 | 0.97 | 0.97 | 0.96 |
